According to ChEMBL document CHEMBL1671865, “Clostridium difficile infections in a Canadian tertiary care hospital before and during a regional epidemic associated with the BI/NAP1/027 strain” (2008):
In brackets after ≈: the same amount, converted by molar mass.

How the values were obtained:
Type in all cases: functional
Clostridioides difficile [1] = experiment: Antimicrobial activity against Clostridium difficile harboring ribotype 027 by CLSI agar dilution method
Clostridioides difficile [2] = experiment: Antimicrobial activity against Clostridium difficile harboring ribotype 001 by CLSI agar dilution method
Clostridioides difficile [3] = experiment: Antimicrobial activity against Clostridium difficile harboring other ribotypes by CLSI agar dilution method

CCC[C@@H]1C[C@@H](C(=O)N[C@@H]([C@H]2O[C@H](SC)[C@H](O)[C@@H](O)[C@H]2O)[C@H](C)Cl)N(C)C1 [CLINDAMYCIN]
MIC50 (Clostridioides difficile [1]): 4 µg/mL (≈ 9.41 µM) | MIC90 (Clostridioides difficile [1]): 8 µg/mL (≈ 18.8 µM) | MIC (Clostridioides difficile [2]): > 64 µg/mL | MIC50 (Clostridioides difficile [2]): > 64 µg/mL | MIC90 (Clostridioides difficile [2]): > 64 µg/mL | MIC50 (Clostridioides difficile [3]): 4 µg/mL (≈ 9.41 µM) | MIC90 (Clostridioides difficile [3]): 8 µg/mL (≈ 18.8 µM)

COc1c(N2CCNC(C)C2)c(F)cc2c(=O)c(C(=O)O)cn(C3CC3)c12 (stereo not drawn) [GATIFLOXACIN]
MIC50 (Clostridioides difficile [1]): > 32 µg/mL | MIC90 (Clostridioides difficile [1]): > 32 µg/mL | MIC50 (Clostridioides difficile [2]): 32 µg/mL (≈ 85.2 µM) | MIC90 (Clostridioides difficile [2]): 32 µg/mL (≈ 85.2 µM) | MIC50 (Clostridioides difficile [3]): 2 µg/mL (≈ 5.33 µM) | MIC90 (Clostridioides difficile [3]): > 32 µg/mL

Cc1ncc([N+](=O)[O-])n1CCO [METRONIDAZOLE]
MIC50 (Clostridioides difficile [1]): 1 µg/mL (≈ 5.84 µM) | MIC90 (Clostridioides difficile [1]): 1 µg/mL (≈ 5.84 µM) | MIC50 (Clostridioides difficile [2]): 0.5 µg/mL (≈ 2.92 µM) | MIC90 (Clostridioides difficile [2]): 0.5 µg/mL (≈ 2.92 µM) | MIC50 (Clostridioides difficile [3]): 0.25 µg/mL (≈ 1.46 µM) | MIC90 (Clostridioides difficile [3]): 0.5 µg/mL (≈ 2.92 µM)

CCS(=O)(=O)CCn1c([N+](=O)[O-])cnc1C [TINIDAZOLE]
MIC50 (Clostridioides difficile [1]): 1 µg/mL (≈ 4.04 µM) | MIC90 (Clostridioides difficile [1]): 1 µg/mL (≈ 4.04 µM) | MIC50 (Clostridioides difficile [2]): 0.5 µg/mL (≈ 2.02 µM) | MIC90 (Clostridioides difficile [2]): 0.5 µg/mL (≈ 2.02 µM) | MIC50 (Clostridioides difficile [3]): 0.25 µg/mL (≈ 1.01 µM) | MIC90 (Clostridioides difficile [3]): 0.5 µg/mL (≈ 2.02 µM)

CN[C@H](CC(C)C)C(=O)N[C@H]1C(=O)N[C@@H](CC(N)=O)C(=O)N[C@H]2C(=O)N[C@H]3C(=O)N[C@H](C(=O)N[C@H](C(=O)O)c4cc(O)cc(O)c4-c4cc3ccc4O)[C@H](O)c3ccc(c(Cl)c3)Oc3cc2cc(c3O[C@@H]2O[C@H](CO)[C@@H](O)[C@H](O)[C@H]2O[C@H]2C[C@](C)(N)[C@H](O)[C@H](C)O2)Oc2ccc(cc2Cl)[C@H]1O [VANCOMYCIN]
MIC (Clostridioides difficile [1]): 0.5 µg/mL (≈ 0.345 µM) | MIC50 (Clostridioides difficile [1]): 0.5 µg/mL (≈ 0.345 µM) | MIC90 (Clostridioides difficile [1]): 2 µg/mL (≈ 1.38 µM) | MIC50 (Clostridioides difficile [2]): 1 µg/mL (≈ 0.69 µM) | MIC90 (Clostridioides difficile [2]): 1 µg/mL (≈ 0.69 µM) | MIC50 (Clostridioides difficile [3]): 1 µg/mL (≈ 0.69 µM) | MIC90 (Clostridioides difficile [3]): 1 µg/mL (≈ 0.69 µM)

RAMOPLANIN
MIC50 (Clostridioides difficile [1]): 0.12 µg/mL | MIC90 (Clostridioides difficile [1]): 0.25 µg/mL | MIC50 (Clostridioides difficile [2]): 0.25 µg/mL | MIC90 (Clostridioides difficile [2]): 0.25 µg/mL | MIC50 (Clostridioides difficile [3]): 0.25 µg/mL | MIC90 (Clostridioides difficile [3]): 0.25 µg/mL
